Test results taken from patent US20240366618A1, “CGRP Antagonists for Treating Trigeminal Neuralgia” (Pfizer Ireland Pharmaceuticals, priority 2021, published 2024).
“Also recorded” adds a separate entry of the source.

Tests used:
[1] = test system: classic trigeminal neuralgia; settings: patients with classic trigeminal neuralgia; cited from earlier work
[2] = test system: refractory atypical trigeminal neuralgia; experiment: Case study: oral rimegepant in one patient with refractory atypical trigeminal neuralgia; type: in vivo, human; set-up: key to Barrow Neurological Institute (BNI) pain intensity score: II: defined as no pain on medication; settings: for adverse effects / tolerability / treatment efficacy in words: treatment period of six months
Excerpt: In this study, refractory atypical trigeminal neuralgia was successfully treated using rimegepant, a novel oral calcitonin gene-related peptide (CGRP) antagonist. The patient experienced a decrease in pain from seven to nine out of 10 to 0 out of 10 within one day of therapy initiation. […] Thus, this case illustrates the promise of CGRP antagonist therapy as a novel treatment for trigeminal neuralgia, including atypical trigeminal neuralgia.
A person with a 5-year history of TN presented with episodic sharp, stabbing and constant burning pain along the V2 nerve distribution. Their pain was triggered by sensation on their upper right teeth, including wind, mastication, and extreme-temperature fluids. Their self-reported pain score ranged from seven to nine out of 10, and their Barrow Neurological Institute (BNI) pain intensity score was rated IV out of V, defined as inadequate pain control with medication. At presentation, their pain regimen consisted of 300 mg oxcarbazepine per day, up to eight 15 mg tablets of oxycodone per day, and 10 mcg per hour transdermal buprenorphine patch. On neurological exam, sensation was intact to light touch bilaterally except along the right nasolabial fold, and grimace was symmetric. The patient experienced impairment in ability to perform daily activities, such as eating, working, and speaking. Other associated symptoms included headache, fatigue, and significant weight loss.
Prior to presentation, the patient unsuccessfully tried several medications for pain control, including oxcarbazepine, meperidine, carisoprodol, propranolol, pregabalin, sumatriptan, and ergot. They also failed medical cannabinoids, oxygen therapy, trigger point injections, and sphenopalatine nerve blockades. They underwent four surgical procedures at outside institutions, including Gamma Knife radiosurgery (37 months prior to presentation), right balloon rhizotomy (31 months prior to presentation), radiofrequency ablation (22 months prior to presentation), and a V2-3 radiofrequency rhizotomy (14 months prior to presentation).
Given their sharp/stabbing pain, we offered them a microvascular decompression (MVD).
After multiple trials of different medications for six years after their MVD, the patient was started on 75 mg of rimegepant per day. Within 12 hours of their first dose, their self-reported pain score improved to 0 out of 10. […] They rarely had mild (2 out of 10) pain, which was controlled with 1 mg buprenorphine. Their BNI pain intensity score was reduced to II, defined as no pain on medication.

migraine [3] = experiment: Three double-blind, placebo-controlled BHV-3000 migraine studies; type: in vivo, human; settings: 75 mg dose
[4] = Ongoing long-term safety study of rimegepant; type: in vivo, human; settings: 75 mg dose; preliminary data
migraine [5] = settings: cited from earlier work
trigeminal neuralgia = settings: cited from earlier work
[6] = 75 mg per day, listed as Rimegepant
[7] = acute migraine treatment trial, fast-dissolve orally disintegrating tablet (ODT) formulation

Molecule: NC(=O)N1c2ccccc2CC(=O)c2ccccc21 [oxcarbazepine]
- response rates with initial therapy [1]: approximately 70%

Molecule: NC(=O)N1c2ccccc2C=Cc2ccccc21 [carbamazepine]
- response rates with initial therapy [1]: approximately 70%

Molecule: N[C@@H]1c2cccnc2[C@H](OC(=O)N2CCC(n3c(=O)[nH]c4ncccc43)CC2)CC[C@H]1c1cccc(F)c1F [rimegepant, (5S,6S,9R)-5-amino-6-(2,3-difluorophenyl)-6,7,8,9-tetrahydro-5H-cyclohepta[b]pyridine-9-yl-4-(2-oxo-2,3-dihydro-1H-imidazo[4,5-b]pyridine-1-yl)piperidine-1-carboxylate]
- time after first dose until self-reported pain score improved to 0 out of 10 ([2]; 75 mg of rimegepant per day): ≤ 12 h
- self-reported pain score ([2]; 75 mg of rimegepant per day, within 12 hours of first dose, before treatment seven to nine out of 10): 0 out of 10
- Barrow Neurological Institute (BNI) pain intensity score ([2]; on 75 mg rimegepant per day, before treatment IV out of V): II
- time after therapy initiation until pain decreased to 0 out of 10 ([2]; oral rimegepant): one
- mood and cognition ([2]; patient-reported, six-month treatment period): drastic improvement in mood and cognition
- rare mild pain during treatment ([2]; six-month treatment period, 75 mg per day, controlled with 1 mg buprenorphine): 2 out of 10
- adverse effects / tolerability ([2]; 75 mg per day): no significant adverse effects
- treatment efficacy in words ([2]; 75 mg per day): continues to be efficacious; also recorded: mostly had no pain
- adverse effects / tolerability [2, 6]: well tolerated
- treatment efficacy in words [2, 6]: maintains efficacy over a period of six months
- adverse effects / tolerability ([2]; 75 mg per day, listed as rigemepant): lack of adverse effects
- pain ([2]; within one day of therapy initiation, before treatment seven to nine out of 10): 0 out of 10
- efficacy for the treatment of migraine in words (migraine [3]): effective
- tolerability in words [4]: well tolerated
- time postdose at which statistically significant benefit for pain relief was demonstrated (migraine [5]; [7]): 60 min
- time postdose at which statistically significant benefit on achieving pain freedom was demonstrated (migraine [5]; [7]): 90 min
- safety profile in words (migraine [5]; migraine trials): favorable safety profile
- efficacy in migraine in words (migraine [5]; orally administered, preventive and acute treatment): proven efficacy in the preventive and acute treatment of migraine

B1: erenumab: an injected anti-CGRP monoclonal antibody (antibody, chains of the INN, looked up, V domains shown)
VH: QVQLVESGGGVVQPGRSLRLSCAASGFTFSSFGMHWVRQAPGKGLEWVAVISFDGSIKYSVDSVKGRFTISRDNSKNTLFLQMNSLRAEDTAVYYCARDRLNYYDSSGYYHYKYYGMAVWGQGTTVTVSS
VL: QSVLTQPPSVSAAPGQKVTISCSGSSSNIGNNYVSWYQQLPGTAPKLLIYDNNKRPSGIPDRFSGSKSGTSTTLGITGLQTGDEADYYCGTWDSRLSAVVFGGGTKLTVL
- patients reporting constipation and/or injection site reaction (trigeminal neuralgia; in vivo): three
- side effects in words (trigeminal neuralgia; in vivo): minimal
- patients with significant decrease in trigeminal neuralgia pain (trigeminal neuralgia; injected erenumab): nine
- patients reporting complete pain resolution (trigeminal neuralgia; of 10 patients treated with erenumab): five
